Holding throughout (format): in vivo
In assay [1] the test system is Watergrass (Echinochloa). Put plainly: Pre-Emergent Test, herbicidal effectiveness. The following applies: pre-emergence, 504 h, 0-to-100 scale, read-out: Herbicidal Effectiveness, % Control Pre, W; for pest or weed control at 11 µg/cm2: 11 micrograms per cm^2, 3 weeks; for pest or weed control at 33 µg/cm2: 33 micrograms per cm^2, 3 weeks. How it is done: (§1) An acetone solution of the test compound was prepared by mixing 750 mg of the compound, 220 mg of a nonionic surfactant and 25 ml of acetone. This solution was added to approximately 125 ml of water containing 156 mg of surfactant.
(§2) Seeds of the test vegetation were planted in a pot of soil and the test solution was sprayed uniformly onto the soil surface at a dose of 33 micrograms/cm^2. The pot was watered and placed in a greenhouse. […] At the end of this period, the herbicidal effectiveness of the compound was rated based on the physiological observations. A 0-to-100 scale was used, 0 representing no phytotoxicity, 100 representing complete kill.

Assay [2] relates to Lambsquarter (Chenopodium album). Put plainly: Pre-Emergent Test, herbicidal effectiveness. The following applies: pre-emergence, 504 h, 0-to-100 scale, read-out: Herbicidal Effectiveness, % Control Pre, L; for pest or weed control at 33 µg/cm2: 33 micrograms per cm^2, 3 weeks. How it is done: as §1, §2
Assay [3] relates to Mustard (Brassica arvensis). Put plainly: Pre-Emergent Test, herbicidal effectiveness. The following applies: pre-emergence, 504 h, 0-to-100 scale; for pest or weed control at 33 µg/cm2: 33 micrograms per cm^2, 3 weeks. The method, then:
as §1, §2

The subject of assay [4] is Wild Oats (Avena fatua). In words: Pre-Emergent Test, herbicidal effectiveness. The following applies: pre-emergence, 504 h, 0-to-100 scale, read-out: Herbicidal Effectiveness, % Control Pre, O; for pest or weed control at 11 µg/cm2: 11 micrograms per cm^2, 3 weeks; for pest or weed control at 33 µg/cm2: 33 micrograms per cm^2, 3 weeks. How it is done: as §1, §2
The subject of assay [5] is Crabgrass (Digitaria sanguinalis). Put plainly: Pre-Emergent Test, herbicidal effectiveness. The following applies: pre-emergence, 504 h, 0-to-100 scale, read-out: Herbicidal Effectiveness, % Control Pre, C; for pest or weed control at 33 µg/cm2: 33 micrograms per cm^2, 3 weeks. How it is done: as §1, §2
For assay [6], the system named is Pigweed (Amaranthus retroflexus). In words: Pre-Emergent Test, herbicidal effectiveness. The conditions noted are these: pre-emergence, 504 h, 0-to-100 scale, read-out: Herbicidal Effectiveness, % Control Pre, P; for pest or weed control at 33 µg/cm2: 33 micrograms per cm^2, 3 weeks. How it is done: as §1, §2
Assay [7] relates to Watergrass (Echinochloa). In words: Post-Emergent Test, herbicidal effectiveness. The following applies: post-emergence, 504 h, 33 micrograms per cm^2, 3 weeks, 0-to-100 scale, read-out: Herbicidal Effectiveness, % Control Post, W.
Assay [8] deals with Lambsquarter (Chenopodium album). Put plainly: Post-Emergent Test, herbicidal effectiveness. The conditions noted are these: post-emergence, 504 h, 33 micrograms per cm^2, 3 weeks, 0-to-100 scale, read-out: Herbicidal Effectiveness, % Control Post, L.
Assay [9] has as its system Mustard (Brassica arvensis). In words: Post-Emergent Test, herbicidal effectiveness. The conditions noted are these: post-emergence, 504 h, 33 micrograms per cm^2, 3 weeks, 0-to-100 scale.
For assay [10], the system named is Wild Oats (Avena fatua). Put plainly: Post-Emergent Test, herbicidal effectiveness. The conditions noted are these: post-emergence, 504 h, 33 micrograms per cm^2, 3 weeks, 0-to-100 scale, read-out: Herbicidal Effectiveness, % Control Post, O.
For assay [11], the system named is Crabgrass (Digitaria sanguinalis). In words: Post-Emergent Test, herbicidal effectiveness. The conditions noted are these: post-emergence, 504 h, 33 micrograms per cm^2, 3 weeks, 0-to-100 scale, read-out: Herbicidal Effectiveness, % Control Post, C.
Assay [12] deals with Pigweed (Amaranthus retroflexus). In words: Post-Emergent Test, herbicidal effectiveness. The conditions noted are these: post-emergence, 504 h, 33 micrograms per cm^2, 3 weeks, 0-to-100 scale, read-out: Herbicidal Effectiveness, % Control Post, P.
The mark [13] stands for this setting: 11 micrograms per cm^2, 3 weeks.

This note sets out measurements from US4243408A, “Herbicidal N-triazolylmethyl-substituted alpha-haloacetanilide” (Chevron Research Company, priority 1978, dated 1981).

`CCc1nnc(CN(C(=O)CCl)c2c(CC)cccc2CC)[nH]1` [Compound 8B]: the pest or weed control at 11 µg/cm2 in the assay on Watergrass (Echinochloa) [1] was determined as 100%; in assay [2] (setting [13]), 100%; in [3] (setting [13]) it was 83%; in the assay on Wild Oats (Avena fatua) [4] it was 99%; in assay [5] (setting [13]), 100%; in [6] (setting [13]), 90%.

For `CCc1cccc(C)c1N(Cc1nnc[nH]1)C(=O)CCl` [Compound 17B], the pest or weed control at 33 µg/cm2 in the assay with Watergrass (Echinochloa) [1] came out at 100%; in assay [2], 100%; in assay [3], 90%; with Wild Oats (Avena fatua) [4] it was 100%; in assay [5], 100%; in assay [6], 95%. Further, the pest or weed control at 5000 µg/mL, 33 µg/cm2 with Watergrass (Echinochloa) [7] amounted to 75%; in assay [8], 65%; in assay [9] it was 75%; in the assay on Wild Oats (Avena fatua) [10], 60%; in assay [11], 75%; in assay [12], 65%.

In the case of `Cc1cccc(C)c1N(Cc1nnc(S)[nH]1)C(=O)CCl` [Compound 18B], the pest or weed control at 33 µg/cm2 (in the assay with Watergrass (Echinochloa) [1]; in assay [2]; in [3]; with Wild Oats (Avena fatua) [4]; in [5]; in assay [6]) was 0% in each case. In addition, the pest or weed control at 5000 µg/mL, 33 µg/cm2 (with Watergrass (Echinochloa) [7]; in assay [8]; in [9]; with Wild Oats (Avena fatua) [10]; in assay [11]; in assay [12]) was 0% in each case.

Take `Cc1nnc(CN(C(=O)CCl)c2ccccc2C)[nH]1` [Compound 25B]: the pest or weed control at 33 µg/cm2 in the assay with Watergrass (Echinochloa) [1] was found to be 100%; in assay [2] it was 100%; in [3], 45%; with Wild Oats (Avena fatua) [4], 0%; in assay [5] it was 97%; in assay [6] it was 70%. For the same molecule, the pest or weed control at 5000 µg/mL, 33 µg/cm2 with Watergrass (Echinochloa) [7] came out at 40%; in assay [8], 0%; in assay [9] it was 0%; in the assay with Wild Oats (Avena fatua) [10], 0%; in [11], 0%; in assay [12], 0%.

Regarding `CSc1nnc(CN(C(=O)CCl)c2c(C)cccc2C)n1C` [Compound 14B], the pest or weed control at 33 µg/cm2 with Watergrass (Echinochloa) [1] was 100%; in [2] it was 0%; in [3], 0%; in the assay with Wild Oats (Avena fatua) [4], 10%; in [5], 90%; in assay [6], 0%. Further, the pest or weed control at 5000 µg/mL, 33 µg/cm2 (with Watergrass (Echinochloa) [7]; in assay [8]; in assay [9]; with Wild Oats (Avena fatua) [10]; in assay [11]; in assay [12]) was 0% in each case.

For `Cc1nnc(CN(C(=O)CCl)c2cccc(C(F)(F)F)c2)[nH]1` [Compound 26B], the pest or weed control at 33 µg/cm2 in the assay on Watergrass (Echinochloa) [1] stood at 65%; in assay [2], 10%; in [3], 10%; with Wild Oats (Avena fatua) [4], 0%; in assay [5], 0%; in assay [6], 0%. The pest or weed control at 5000 µg/mL, 33 µg/cm2 (in the assay with Watergrass (Echinochloa) [7]; in [8]; in [9]; in the assay on Wild Oats (Avena fatua) [10]; in [11]; in assay [12]) was 0% in each case.

With `CCc1cccc(C)c1NCc1nnc(S)n1C` [Compound 19], the pest or weed control at 33 µg/cm2 (with Watergrass (Echinochloa) [1]; in [2]; in [3]; in the assay on Wild Oats (Avena fatua) [4]; in assay [5]; in assay [6]) was 0% throughout. For the same molecule, the pest or weed control at 5000 µg/mL, 33 µg/cm2 (with Watergrass (Echinochloa) [7]; in assay [8]; in assay [9]; in the assay with Wild Oats (Avena fatua) [10]; in assay [11]; in assay [12]) was 0% each time.

Turning to `CCc1cccc(C)c1NCc1nnc[nH]1` [Compound 17A], the pest or weed control at 33 µg/cm2 (in the assay with Watergrass (Echinochloa) [1]; in assay [2]; in [3]; in the assay on Wild Oats (Avena fatua) [4]; in [5]; in [6]) was 0% each time. Further, the pest or weed control at 5000 µg/mL, 33 µg/cm2 (with Watergrass (Echinochloa) [7]; in assay [8]; in assay [9]; in the assay with Wild Oats (Avena fatua) [10]; in [11]; in assay [12]) was 0% each time.

Regarding `CCc1nnc(CN(C(=O)CCl)c2c(C)cccc2CC)[nH]1` [Compound 15B], the pest or weed control at 33 µg/cm2 (with Watergrass (Echinochloa) [1]; in assay [2]; in assay [3]; with Wild Oats (Avena fatua) [4]; in assay [5]; in assay [6]) was 100% each time. Further, the pest or weed control at 5000 µg/mL, 33 µg/cm2 was 80% in the assay with Watergrass (Echinochloa) [7]; 35% in [8]; 35% in assay [9]; 55% with Wild Oats (Avena fatua) [10]; 75% in assay [11]; 30% in assay [12].

Turning to `Cc1nnc(CCNc2c(C)cccc2C)[nH]1` [Compound 10A], the pest or weed control at 33 µg/cm2 (in the assay with Watergrass (Echinochloa) [1]; in [2]; in assay [3]; in the assay with Wild Oats (Avena fatua) [4]; in assay [5]; in assay [6]) was 0% throughout. The pest or weed control at 5000 µg/mL, 33 µg/cm2 (in the assay on Watergrass (Echinochloa) [7]; in assay [8]; in [9]; in the assay with Wild Oats (Avena fatua) [10]; in [11]; in assay [12]) was 0% each time.

Consider `CCc1cccc(C)c1N(Cc1nnc(C)[nH]1)C(=O)CCl` [Compound 6B], for which the pest or weed control at 11 µg/cm2 with Wild Oats (Avena fatua) [4] came out at 100%.

`CCc1cccc(CC)c1N(Cc1nnc(C)[nH]1)C(=O)CCl` [Compound 5B]: in the assay on Watergrass (Echinochloa) [1], the pest or weed control at 11 µg/cm2 worked out at 100%.
